Laboratory results taken from ChEMBL document CHEMBL5500367, “Improving tumor sensitivity by the introduction of an ester chain to triaryl derivatives targeting PD-1/PD-L1” (Eur J Med Chem, 2024).
pIC50: −log10 of the molar value. Activity calls are given as the source filed them. The rule behind the calls is not given here.

Legend:
[1] = biological target: Programmed cell death protein 1/Programmed cell death 1 ligand 1 (Homo sapiens, UniProt Q9NZQ7); test: Inhibition of PD-1/PD-L1 (unknown origin) interaction incubated for 15 mins by HTRF assay; type: protein-complex assay
Programmed cell death protein 1/Programmed cell death 1 ligand 1, sequence (Q15116 whole entry): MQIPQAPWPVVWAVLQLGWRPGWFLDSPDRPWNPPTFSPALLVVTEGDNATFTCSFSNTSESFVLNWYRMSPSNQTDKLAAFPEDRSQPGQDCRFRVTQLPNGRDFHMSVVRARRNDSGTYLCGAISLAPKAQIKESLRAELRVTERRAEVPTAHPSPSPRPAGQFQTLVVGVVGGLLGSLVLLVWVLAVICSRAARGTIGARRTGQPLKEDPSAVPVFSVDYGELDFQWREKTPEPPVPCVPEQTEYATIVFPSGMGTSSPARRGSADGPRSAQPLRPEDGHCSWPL
Programmed cell death protein 1/Programmed cell death 1 ligand 1, sequence (Q9NZQ7 whole entry): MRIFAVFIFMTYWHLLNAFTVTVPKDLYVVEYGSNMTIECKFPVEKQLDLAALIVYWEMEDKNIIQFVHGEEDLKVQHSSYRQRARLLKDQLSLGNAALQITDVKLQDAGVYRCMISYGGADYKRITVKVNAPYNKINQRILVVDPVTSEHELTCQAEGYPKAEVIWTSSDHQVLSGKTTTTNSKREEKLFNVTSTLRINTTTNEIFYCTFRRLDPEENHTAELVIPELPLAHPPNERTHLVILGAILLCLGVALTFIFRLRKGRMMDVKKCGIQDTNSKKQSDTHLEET

MDA-MB-231 = test: Cytotoxicity against human MDA-MB-231 cells assessed as inhibition of cell viability incubated for 72 hrs by MTT assay; type: functional, cell-based; details: MDA-MB-231, 72 h
NCI-H1299 = test: Cytotoxicity against human NCI-H1299 cells assessed as inhibition of cell viability incubated for 72 hrs by MTT assay; type: functional, cell-based; details: NCI-H1299, 72 h
HCT-116 = test: Cytotoxicity against human HCT-116 cells assessed as inhibition of cell viability incubated for 72 hrs by MTT assay; type: functional, cell-based; details: HCT-116, 72 h
A549 [2] = test: Cytotoxicity against human A549 cells assessed as inhibition of cell viability incubated for 72 hrs by MTT assay; type: functional, cell-based; details: A549, 72 h
A549 [3] = test: Cytotoxicity against human A549 cells assessed as decrease in cell viability at 2.5 to 10 uM incubated for 48 hrs by MTT assay; type: functional, cell-based; details: dose 2.5-10 µM
[4] = Cytotoxicity against human PBMC cells assessed as decrease in cell viability at 2.5 to 10 uM incubated for 48 hrs by MTT assay; type: toxicity, cell-based; details: dose 2.5-10 µM
A549 [5] = test: Cytotoxicity against human A549 cells assessed as inhibition of cell viability at 10 uM preincubated with A549 cells for 2 hrs followed by co-culture with CD3/CD28/CD2-activated PBMC cells for 48 hrs by MTT assay relative to control; type: functional; details: time 50 hrs
4T1 [6] = test: Antitumor activity against mouse 4T1 cells allografted in BALB/c mouse at 10 mg/kg, ip treated for 21 days consecutively relative to control; type: functional; details: 4T1, 504 h, time 21 day, read-out: TGI
4T1 [7] = test: Antitumor activity against mouse 4T1 cells allografted in BALB/c mouse at 20 mg/kg, ip treated for 21 days consecutively relative to control; type: functional; details: 4T1, 504 h, time 21 day, read-out: TGI
[8] = Toxicity in BALB/c mouse allografted with mouse 4T1 cells assessed as body weight loss at 10 to 20 mg/kg, ip treated for 21 days consecutively; type: organism-based; details: in vivo, 504 h, dose 10-20 mg/kg, time 21 day
[9] = Toxicity in BALB/c mouse allografted with mouse 4T1 cells assessed as animal death at 10 to 20 mg/kg, ip treated for 21 days consecutively; type: organism-based; details: in vivo, 504 h, dose 10-20 mg/kg, time 21 day
[10] = Toxicity in BALB/c mouse allografted with mouse 4T1 cells assessed as drug tolerance at 10 to 20 mg/kg, ip treated for 21 days consecutively; type: organism-based; details: in vivo, 504 h, dose 10-20 mg/kg, time 21 day
4T1 [11] = test: Antitumor activity against mouse 4T1 cells allografted in BALB/c mouse assessed as increase in CD8+ cell infiltration administered intraperitoneally treated for 21 days consecutively by IHC analysis; type: functional, cell-based; details: dose 10-20 mg/kg, route ip, time 21.0 day
[12] = Metabolic stability in human liver microsomes assessed as half life by LC-MS/MS analysis; type: ADME, Microsome
[13] = Metabolic stability in human liver microsomes assessed as intrinsic clearance by LC-MS/MS analysis; type: ADME, Microsome
[14] = biological target: Programmed cell death 1 ligand 1 (Homo sapiens, UniProt Q9NZQ7)
Programmed cell death 1 ligand 1, sequence (Q9NZQ7 whole entry): as above
Description: Binding affinity to CM5 chip immobilized recombinant human PD-L1 assessed as association constant by SPR analysis

## Cc1c(C(=O)Oc2ccc(CN3C[C@H](O)C[C@H]3C(=O)O)c(OCc3cccc(C#N)c3)c2)cccc1-c1ccccc1
[1]
  pIC50: 8.92
MDA-MB-231
  pIC50: < 4.70
NCI-H1299
  pIC50: < 4.70
HCT-116
  pIC50: < 4.70
A549 [2]
  pIC50: < 4.70
A549 [3]
  Activity: inactive
[4]
  Activity: Non-Toxic
A549 [5]
  inhibition at 10 µM: 76.5%
4T1 [6]
  inhibition in vivo at 10 mg/kg: 49.4%
4T1 [7]
  inhibition in vivo at 20 mg/kg: 67.8%
[8]
  Activity: Non-Toxic
[9]
  Activity: Non-Toxic
[10]
  Activity: Non-Toxic
4T1 [11]
  Activity: Dose-Dependent Effect
[12]
  t1/2: 18.8 min
[13]
  CLH: 100 µL/min/mg
[14]
  Ka: 7.9 10^5/M/s

## Cc1c(C(=O)Oc2ccc(CNC(CO)(CO)CO)c(Br)c2)cccc1-c1ccccc1
[1]
  pIC50: 8.58
MDA-MB-231
  pIC50: < 4.70
NCI-H1299
  pIC50: 4.73
HCT-116
  pIC50: < 4.70
A549 [2]
  pIC50: < 4.70
A549 [3]
  Activity: inactive
[4]
  Activity: Non-Toxic
[14]
  Ka: 1.16 10^5/M/s

## Cc1cc(OC(=O)c2cccc(-c3ccccc3)c2C)ccc1CNC(CO)(CO)CO
[1]
  pIC50: 8.70
MDA-MB-231
  pIC50: 4.74
NCI-H1299
  pIC50: 4.78
HCT-116
  pIC50: 4.91
A549 [2]
  pIC50: 4.73
[14]
  Ka: 4.37 10^5/M/s

## Cc1c(C(=O)Oc2ccc(CN[C@@H](CO)C(=O)O)cc2)cccc1-c1ccccc1
[1]
  pIC50: 7.76
MDA-MB-231
  pIC50: < 4.70
NCI-H1299
  pIC50: < 4.70
HCT-116
  pIC50: < 4.70
A549 [2]
  pIC50: < 4.70
A549 [3]
  Activity: inactive
[4]
  Activity: Non-Toxic

## Cc1c(COc2cc(OCc3cccc(C#N)c3)c(CN3C[C@H](O)C[C@@H]3C(=O)O)cc2Cl)cccc1-c1ccc2c(c1)OCCO2
A549 [3]
  Activity: inactive
[4]
  Activity: Non-Toxic

## COc1cc(OC(=O)c2cccc(-c3ccccc3)c2C)ccc1CN1CCCC[C@H]1C(=O)O
[1]
  pIC50: < 6.00

## Cc1c(C(=O)Oc2ccc(CNCCO)c(OCc3cccc(C#N)c3)c2)cccc1-c1ccccc1
[1]
  pIC50: 7.88
MDA-MB-231
  pIC50: 5.11
NCI-H1299
  pIC50: 5.13
HCT-116
  pIC50: 5.13
A549 [2]
  pIC50: 4.90
A549 [3]
  Activity: inactive
[4]
  Activity: Non-Toxic

## COc1cc(OC(=O)c2cccc(-c3ccccc3)c2C)ccc1CNCCCO
[1]
  pIC50: < 6.00

## COc1cc(OC(=O)c2cccc(-c3ccccc3)c2C)ccc1CNCCO
[1]
  pIC50: 6.58

## Cc1c(C(=O)Oc2ccc(CN[C@@H](CO)C(=O)O)c(OCc3cccc(C#N)c3)c2)cccc1-c1ccccc1
[1]
  pIC50: < 6.00

## Cc1c(C(=O)Oc2ccc(CN[C@@H](CO)C(=O)O)c(OCc3cccc(C#N)c3)c2C)cccc1-c1ccccc1
[1]
  pIC50: 6.64

## COc1cc(OC(=O)c2cccc(-c3ccccc3)c2C)ccc1CN1CCC(O)CC1
[1]
  pIC50: 7.10

## COc1cc(OC(=O)c2cccc(-c3ccccc3)c2C)cc(OC)c1CNCC(O)CO (configuration not stated)
[1]
  pIC50: 6.64

## Cc1c(C(=O)Oc2ccc(CNC(CO)(CO)CO)c(OCc3cccc(C#N)c3)c2C)cccc1-c1ccccc1
[1]
  pIC50: 6.96

## Cc1c(C(=O)Oc2ccc(CN[C@H](CO)C(=O)O)c(OCc3cccc(C#N)c3)c2)cccc1-c1ccccc1
[1]
  pIC50: 7.62

## Cc1cc(OC(=O)c2cccc(-c3ccccc3)c2C)cc(OCc2cccc(C#N)c2)c1CNCCO
[1]
  pIC50: 6.57

## COc1cc(OC(=O)c2cccc(-c3ccccc3)c2C)ccc1CNCCNC(C)=O
[1]
  pIC50: 6.05

## COc1cc(OC(=O)c2cccc(-c3ccccc3)c2C)ccc1CNC(CO)CO
[1]
  pIC50: 7.57
MDA-MB-231
  pIC50: < 4.70
NCI-H1299
  pIC50: 4.94
HCT-116
  pIC50: 4.91
A549 [2]
  pIC50: 4.73

## COc1cc(OC(=O)c2cccc(-c3ccccc3)c2C)ccc1CNCCN(C)C
[1]
  pIC50: 6.45

## Cc1c(C(=O)Oc2ccc(CNC(CO)(CO)CO)cc2)cccc1-c1ccccc1
[1]
  pIC50: 7.59

## COc1cc(OC(=O)c2cccc(-c3ccccc3)c2C)ccc1CNC[C@H](O)CO
[1]
  pIC50: 6.42

## Cc1cc(OC(=O)c2cccc(-c3ccccc3)c2C)cc(OCc2cccc(C#N)c2)c1CN[C@@H](CO)C(=O)O
[1]
  pIC50: 7.19

## Cc1c(C(=O)Oc2cc(OCc3cccc(C#N)c3)c(CNC(CO)CO)cc2Cl)cccc1-c1ccccc1
[1]
  pIC50: 6.93

## Cc1cc(OC(=O)c2cccc(-c3ccccc3)c2C)cc(OCc2cccc(C#N)c2)c1CNC[C@H](O)CO
[1]
  pIC50: 6.60

## COc1cc(OC(=O)c2cccc(-c3ccccc3)c2C)ccc1CNC(CO)(CO)CO
[1]
  pIC50: 7.14

## Cc1cc(OC(=O)c2cccc(-c3ccccc3)c2C)cc(OCc2cccc(C#N)c2)c1CN[C@H](CO)C(=O)O
[1]
  pIC50: 7.40

## COc1cc(OC(=O)c2cccc(-c3ccccc3)c2C)ccc1CN[C@@H](CO)C(=O)O
[1]
  pIC50: 7.56
MDA-MB-231
  pIC50: < 4.70
NCI-H1299
  pIC50: < 4.70
HCT-116
  pIC50: < 4.70
A549 [2]
  pIC50: < 4.70
A549 [3]
  Activity: inactive
[4]
  Activity: Non-Toxic

## Cc1cc(OC(=O)c2cccc(-c3ccccc3)c2C)ccc1CN[C@@H](CO)C(=O)O
[1]
  pIC50: 8.65
MDA-MB-231
  pIC50: < 4.70
NCI-H1299
  pIC50: < 4.70
HCT-116
  pIC50: < 4.70
A549 [2]
  pIC50: < 4.70
A549 [3]
  Activity: inactive
[4]
  Activity: Non-Toxic
[14]
  Ka: 5.31 10^5/M/s

## COc1cc(OC(=O)c2cccc(-c3ccccc3)c2C)ccc1CN1C[C@H](O)C[C@H]1C(=O)O
[1]
  pIC50: 6.95

## COc1cc(OCc2cccc(-c3ccccc3)c2C)cc(OC)c1CN1CCCC[C@H]1C(=O)O
A549 [3]
  Activity: inactive
[4]
  Activity: Non-Toxic
4T1 [7]
  inhibition in vivo at 20 mg/kg: 33.1%
[12]
  t1/2: 14.2 min
[13]
  CLH: 216 µL/min/mg
[14]
  Ka: 1.17 10^5/M/s

## Cc1c(C(=O)Oc2ccc(CN[C@H](CO)C(=O)O)cc2)cccc1-c1ccccc1
[1]
  pIC50: 7.26

## CC(=O)NCCNCc1ccc(OC(=O)c2cccc(-c3ccccc3)c2C)cc1OCc1cccc(C#N)c1
[1]
  pIC50: 6.30

## COc1cc(OC(=O)c2cccc(-c3ccccc3)c2C)ccc1CNC[C@@H](O)CO
[1]
  pIC50: 6.52

## Cc1cc(OC(=O)c2cccc(-c3ccccc3)c2C)cc(OCc2cccc(C#N)c2)c1CNC(CO)(CO)CO
[1]
  pIC50: 6.88
